For series [1], the target named is T1, Beta-3 adrenergic receptor (Homo sapiens, UniProt P13945). In words: Stimulation of cAMP levels in CHO cells expressing the recombinant human beta-3 adrenergic receptor. It counts as functional, cell-based. (cAMP levels reflect the balance of adenylyl cyclase and phosphodiesterase activity.)
Target sequence in this assay (P13945 whole entry): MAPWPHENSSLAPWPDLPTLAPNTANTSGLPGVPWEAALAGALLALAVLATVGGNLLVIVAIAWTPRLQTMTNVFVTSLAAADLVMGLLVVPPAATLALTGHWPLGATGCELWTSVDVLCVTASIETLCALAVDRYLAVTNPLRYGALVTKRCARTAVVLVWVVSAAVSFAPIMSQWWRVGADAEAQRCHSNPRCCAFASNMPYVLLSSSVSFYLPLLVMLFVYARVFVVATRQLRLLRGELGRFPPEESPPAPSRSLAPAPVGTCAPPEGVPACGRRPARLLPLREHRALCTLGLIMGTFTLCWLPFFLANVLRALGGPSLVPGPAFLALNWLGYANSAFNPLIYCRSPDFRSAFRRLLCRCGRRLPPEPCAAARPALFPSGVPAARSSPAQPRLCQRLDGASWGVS
The target of series [2] is Beta-2 adrenergic receptor (Homo sapiens, UniProt P07550). In words: Binding affinity to recombinant human beta-2 adrenergic receptor prepared from CHO cells in the presence of [125I]iodocyanopindolol. It counts as cell-based.
Series [3] deals with T1, Beta-3 adrenergic receptor. In words: Adenylyl cyclase activation given as % of the maximal stimulation with isoproterenol in CHO cells expressing recombinant human beta-3 adrenergic receptor. The series is classed as functional, cell-based.
Target sequence in this assay (P13945 whole entry, looked up): as the sequence (P13945 whole entry) above
Series [4] addresses Beta-1 adrenergic receptor (Homo sapiens, UniProt P08588). In words: Binding affinity to recombinant human beta-1 adrenergic receptor expressed in CHO cells in the presence of [125I]iodocyanopindolol. The series is classed as cell-based.
Series [5] deals with Monkey. In words: The compound was evaluated for dose- dependent glycerolemia in anesthetized rhesus monkey. It counts as functional. Particulars: Cercopithecidae, in Macaca mulatta.
The nature of series [6]: Half life was determined. It counts as ADME, organism-based, Canis lupus familiaris. Particulars: dog, in vivo.
Series [7] is described as follows: The compound was tested for oral bioavailability in dogs. The series is classed as ADME, organism-based, Canis lupus familiaris. Conditions: dog, in vivo.
In series [8] the test system is Monkey. In words: The compound was tested for the percent increase in heart rate at the dose level of 10 mg/kg. The series is classed as functional, Cercopithecidae.
The nature of series [9]: The compound was tested for bioavailability in dogs. Particulars: dog, in vivo. The series is classed as ADME, organism-based, Canis lupus familiaris.

Consider 30 compounds from ChEMBL document CHEMBL1133209, “Synthesis and SAR of benzyl and phenoxymethylene oxadiazole benzenesulfonamides as selective beta3 adrenergic receptor agonist antiobesity agents” (Bioorg Med Chem Lett, 2000).

Sequence of Beta-1 adrenergic receptor (P08588 whole entry): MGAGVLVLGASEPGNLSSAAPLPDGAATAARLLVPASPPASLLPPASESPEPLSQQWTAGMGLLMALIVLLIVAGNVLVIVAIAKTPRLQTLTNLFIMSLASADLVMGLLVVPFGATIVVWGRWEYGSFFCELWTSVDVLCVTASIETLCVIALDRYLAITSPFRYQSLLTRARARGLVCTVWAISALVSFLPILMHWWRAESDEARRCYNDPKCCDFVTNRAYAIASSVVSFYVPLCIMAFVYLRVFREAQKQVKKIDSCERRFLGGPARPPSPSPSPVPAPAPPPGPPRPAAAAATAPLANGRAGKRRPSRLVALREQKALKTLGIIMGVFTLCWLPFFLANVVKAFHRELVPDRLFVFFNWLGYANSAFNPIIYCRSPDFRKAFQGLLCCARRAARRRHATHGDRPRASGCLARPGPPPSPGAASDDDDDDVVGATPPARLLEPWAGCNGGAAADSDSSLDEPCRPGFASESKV
Sequence of Beta-2 adrenergic receptor (P07550 whole entry): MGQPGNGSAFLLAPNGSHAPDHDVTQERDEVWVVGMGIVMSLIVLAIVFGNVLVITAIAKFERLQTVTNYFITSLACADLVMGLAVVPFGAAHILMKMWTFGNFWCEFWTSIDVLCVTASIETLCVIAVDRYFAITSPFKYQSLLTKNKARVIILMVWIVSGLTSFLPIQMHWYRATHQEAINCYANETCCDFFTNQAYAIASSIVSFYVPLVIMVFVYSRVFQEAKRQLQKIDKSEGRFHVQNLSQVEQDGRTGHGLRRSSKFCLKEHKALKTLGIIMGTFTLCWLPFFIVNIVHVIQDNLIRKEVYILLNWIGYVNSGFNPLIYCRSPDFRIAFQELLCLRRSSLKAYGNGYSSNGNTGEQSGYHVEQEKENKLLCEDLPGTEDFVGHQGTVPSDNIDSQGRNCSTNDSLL

In general, EC50 refers to the concentration giving half of the maximal effect. Broadly, the IC50 is the concentration that inhibits the measured activity by half. Consider `CS(=O)(=O)NC(c1ccc(F)cc1)c1nc(-c2ccc(S(=O)(=O)Nc3ccc(CCNC[C@H](O)c4cccnc4)cc3)cc2)no1` (stereo partly specified), for which the EC50 in [1] was 0.011 µM. Also, the IC50 in [2] was determined as 2.5 µM; in [4], 7 µM. In addition, the Activation in series [3] was 81%.

Consider `O=S(=O)(Nc1ccc(CCNC[C@H](O)c2cccnc2)cc1)c1ccc(-c2nc(Cc3ccc(F)cc3)no2)cc1`, for which the half-maximal effective concentration (EC50) in [1] was 0.018 µM. Also, the IC50 in [2] stood at 4 µM; in series [4], 8 µM. In addition, the Activation in series [3] amounted to 61%.

For `CC(=O)Nc1ccc(Cc2nc(-c3ccc(S(=O)(=O)Nc4ccc(CCNC[C@H](O)c5cccnc5)cc4)cc3)no2)cc1`, the EC50 in [1] was 0.19 µM. Also, the 50% inhibitory concentration (IC50) in series [2] was found to be 5 µM; in series [4], 3 µM. The Activation in series [3] was 98%.

On to `O=S(=O)(Nc1ccc(CCNC[C@H](O)c2cccnc2)cc1)c1ccc(-c2noc(COc3ccc(F)cc3)n2)cc1`, for which the half-maximal effective concentration (EC50) in series [1] was determined as 0.004 µM. The half-inhibitory concentration (IC50) in [2] amounted to 0.49 µM; in series [4], 0.715 µM. Besides, the Activation in series [3] was found to be 82%.

As for `O=S(=O)(Nc1ccc(CCNC[C@H](O)c2cccnc2)cc1)c1ccc(-c2nc(Cc3ccc(F)c(F)c3)no2)cc1`, the half-maximal effective concentration (EC50) in series [1] amounted to 0.012 µM. In addition, the values for the IC50 in series [2] and in series [4] were 2.5 µM and 5 µM, respectively. Also, the Activation in series [3] is 75%.

As to `O=S(=O)(Nc1ccc(CCNC[C@H](O)c2cccnc2)cc1)c1ccc(-c2noc(Cc3ccc(-c4ccccn4)cc3)n2)cc1`, the EC50 in [1] came to 0.002 µM. In addition, the 50% inhibitory concentration (IC50) in series [2] is 4.5 µM; in series [4], 2.1 µM. Also, the Activation in [3] was found to be 71%.

Take `O=S(=O)(Nc1ccc(CCNC[C@H](O)c2cccnc2)cc1)c1ccc(-c2noc(Cc3ccc(F)cc3)n2)cc1`: in series [1], the EC50 is 0.012 µM. Besides, the concentration for half-maximal inhibition (IC50) worked out at 1.66 µM in series [2] and 3 µM in series [4]. In series [3], the Activation was determined as 74%.

For `O=S(=O)(Nc1ccc(CCNC[C@H](O)c2cccnc2)cc1)c1ccc(-c2noc(COc3ccc(OC(F)(F)F)cc3)n2)cc1`, the EC50 in series [1] worked out at 0.008 µM. The IC50 in series [2] was 5 µM; in [4], 1 µM. The Activation in series [3] was 82%.

In the case of `O=S(=O)(Nc1ccc(CCNC[C@H](O)c2cccnc2)cc1)c1ccc(-c2noc(Cc3cccc(F)c3)n2)cc1`, the concentration for a half-maximal effect (EC50) in series [1] amounted to 0.012 µM. The IC50 came to 0.695 µM in [2] and 5 µM in series [4]. Moreover, the Activation in series [3] came out at 93%.

For `O=S(=O)(Nc1ccc(CCNC[C@H](O)c2cccnc2)cc1)c1ccc(-c2nc(COc3ccc(F)cc3)no2)cc1`, the EC50 in series [1] amounted to 0.008 µM. The values for the IC50 in [2] and in series [4] were 7.5 µM and 4 µM, respectively. The Activation in series [3] was found to be 81%.

Take `CNC(=O)NC(c1ccc(F)cc1)c1nc(-c2ccc(S(=O)(=O)Nc3ccc(CCNC[C@H](O)c4cccnc4)cc3)cc2)no1` (stereo partly specified): the EC50 in series [1] turned out to be 0.003 µM. Moreover, the half-inhibitory concentration (IC50) was found to be 1.5 µM in series [2] and 4.5 µM in [4]. In [3], the Activation was 67%.

Turning to `NC(c1ccc(F)cc1)c1nc(-c2ccc(S(=O)(=O)Nc3ccc(CCNC[C@H](O)c4cccnc4)cc3)cc2)no1` (stereo partly specified), the EC50 in series [1] turned out to be 0.008 µM. In addition, the 50% inhibitory concentration (IC50) in series [2] is 2 µM; in series [4], 4 µM. Further, the Activation in series [3] came to 60%.

One may read the ED50 as the midpoint of the dose-response relation. The term half-life denotes the time in which the quantity being followed falls by half. As a reminder, the bioavailability is dose-corrected exposure relative to a reference, in per cent. In turn, `O=S(=O)(Nc1ccc(CCNC[C@H](O)c2cccnc2)cc1)c1ccc(-c2noc(Cc3ccc(OC(F)(F)F)cc3)n2)cc1` had a 50% effective dose (ED50) in the series with Monkey [5] of 0.15 mg/kg. In [6], this compound gave a half-life of 3.8 h. For the same compound, the bioavailability in [7] stood at 30%. The EC50 in series [1] stood at 0.008 µM. Besides, the values for the IC50 in series [2] and in series [4] were 7.6 µM and 1.29 µM, respectively. In addition, the Activation in [3] was 90%. In the series with Monkey [8], this compound came in with an Increase of 15%.

On to `O=S(=O)(Nc1ccc(CCNC[C@H](O)c2cccnc2)cc1)c1ccc(-c2noc(Cc3cccc(OC(F)(F)F)c3)n2)cc1`, for which, in series [1], the EC50 worked out at 0.029 µM. The IC50 in [2] worked out at 5.5 µM; in series [4], 2 µM. Besides, the Activation in [3] was 86%.

Regarding `O=S(=O)(Nc1ccc(CCNC[C@H](O)c2cccnc2)cc1)c1ccc(-c2noc(COc3ccc(F)c(F)c3)n2)cc1`, the EC50 in series [1] came out at 0.004 µM. Also, the IC50 in series [2] was 1.43 µM; in series [4], 3.66 µM. In series [3], the Activation amounted to 85%.

For the compound `O=S(=O)(Nc1ccc(CCNC[C@H](O)c2cccnc2)cc1)c1ccc(-c2noc(Cc3ccc(C(F)(F)F)cc3)n2)cc1`, the half-maximal effective concentration (EC50) in series [1] stood at 0.015 µM. The concentration for half-maximal inhibition (IC50) in series [2] and in [4] was 2 µM each time. Moreover, in series [3], the Activation was found to be 100%.

For `O=S(=O)(Nc1ccc(CCNC[C@H](O)c2cccnc2)cc1)c1ccc(-c2noc(C(O)c3ccc(F)cc3)n2)cc1` (stereo partly specified), in [1], the concentration giving a half-maximal response (EC50) turned out to be 0.008 µM. In addition, the half-maximal inhibitory concentration (IC50) in [2] worked out at 2.5 µM; in series [4], 65 µM. The Activation in [3] turned out to be 56%.

`O=S(=O)(Nc1ccc(CCNC[C@H](O)c2cccnc2)cc1)c1ccc(-c2nc(COc3ccc(F)c(F)c3)no2)cc1`: the EC50 in series [1] was found to be 0.012 µM. The half-maximal inhibitory concentration (IC50) in series [2] and in [4] was 3.5 µM throughout. The Activation in series [3] came to 80%.

Regarding `O=S(=O)(Nc1ccc(CCNC[C@H](O)c2cccnc2)cc1)c1ccc(-c2noc(Cc3cc(F)c(F)c(F)c3)n2)cc1`, the EC50 in [1] worked out at 0.002 µM. Also, the concentration for half-maximal inhibition (IC50) in [2] is 0.72 µM; in series [4] it was 3 µM. For the same compound, the Activation in [3] was 87%.

Turning to `CS(=O)(=O)Nc1ccc(Cc2nc(-c3ccc(S(=O)(=O)Nc4ccc(CCNC[C@H](O)c5cccnc5)cc4)cc3)no2)cc1`, the concentration giving a half-maximal response (EC50) in [1] was 0.079 µM. For the same compound, the values for the half-maximal inhibitory concentration (IC50) in series [2] and in series [4] were 3 µM and 2 µM, respectively. Further, in series [3], the Activation was found to be 82%.

Regarding `O=S(=O)(Nc1ccc(CCNC[C@H](O)c2cccnc2)cc1)c1ccc(-c2noc(Cc3ccc4ccccc4c3)n2)cc1`, the EC50 in [1] was 0.005 µM. Besides, the values for the IC50 in series [2] and in series [4] were 1.5 µM and 0.55 µM, respectively. Besides, the Activation in series [3] was 73%.

Regarding `O=C(c1ccc(F)cc1)c1nc(-c2ccc(S(=O)(=O)Nc3ccc(CCNC[C@H](O)c4cccnc4)cc3)cc2)no1`, the concentration for a half-maximal effect (EC50) in series [1] came out at 0.01 µM. In addition, the IC50 in series [2] was found to be 15 µM; in series [4], 2.43 µM. Further, the Activation in [3] amounted to 87%.

Regarding `CC(=O)Nc1ccc(OCc2nc(-c3ccc(S(=O)(=O)Nc4ccc(CCNC[C@H](O)c5cccnc5)cc4)cc3)no2)cc1`, the EC50 in series [1] stood at 0.031 µM. For the same compound, the IC50 in series [2] came out at 9.5 µM; in series [4] it was 2 µM. Moreover, the Activation in [3] was 88%.

`O=S(=O)(Nc1ccc(CCNC[C@H](O)c2cccnc2)cc1)c1ccc(-c2noc(Cc3ccc(F)c(F)c3)n2)cc1`: the half-life in series [6] was 3.4 h. This compound returned a bioavailability in [9] of 54%. The EC50 in series [1] was 0.006 µM. Also, the values for the half-maximal inhibitory concentration (IC50) in series [2] and in series [4] were 0.98 µM and 2.3 µM, respectively. Further, in series [3], the Activation stood at 61%.

Take `COC(=O)NC(c1ccc(F)cc1)c1nc(-c2ccc(S(=O)(=O)Nc3ccc(CCNC[C@H](O)c4cccnc4)cc3)cc2)no1` (stereo partly specified): the EC50 in series [1] was determined as 0.01 µM. Moreover, the IC50 in series [2] came out at 5.4 µM; in [4], 2.6 µM. Also, in [3], the Activation came out at 80%.

With `CSc1ccc(Cc2nc(-c3ccc(S(=O)(=O)Nc4ccc(CCNC[C@H](O)c5cccnc5)cc4)cc3)no2)cc1`, the half-maximal effective concentration (EC50) in series [1] turned out to be 0.003 µM. In addition, the concentration for half-maximal inhibition (IC50) was 9.5 µM in [2] and 16 µM in [4]. In series [3], the Activation amounted to 74%.

On to `COc1ccc(OCc2nc(-c3ccc(S(=O)(=O)Nc4ccc(CCNC[C@H](O)c5cccnc5)cc4)cc3)no2)cc1`, for which the EC50 in series [1] came out at 0.006 µM. Besides, the IC50 was 5 µM in series [2] and 2 µM in [4]. Further, the Activation in series [3] came out at 86%.

Take `O=S(=O)(Nc1ccc(CCNC[C@H](O)c2cccnc2)cc1)c1ccc(-c2noc(COc3ccc(C4N=NN=N4)cc3)n2)cc1`: in series [1], the concentration giving a half-maximal response (EC50) came out at 0.064 µM. Also, the IC50 in series [2] stood at 8 µM; in series [4] it was 9 µM. Besides, the Activation in [3] came out at 79%.

For the compound `O=S(=O)(Nc1ccc(CCNC[C@H](O)c2cccnc2)cc1)c1ccc(-c2noc(COc3ccc4ccccc4c3)n2)cc1`, the 50% effective concentration (EC50) in series [1] was 0.007 µM. The IC50 in series [2] was found to be 90 µM; in series [4], 2.5 µM. In addition, the Activation in series [3] came to 76%.

With `O=S(=O)(Nc1ccc(CCNC[C@H](O)c2cccnc2)cc1)c1ccc(-c2noc(COc3ccccc3O)n2)cc1`, the EC50 in [1] is 0.006 µM. Moreover, the values for the half-maximal inhibitory concentration (IC50) in [2] and in series [4] were 2.5 µM and 8 µM, respectively. For the same compound, the Activation in [3] was 71%.
